Laboratory results published in patent US8846710B2, “Method of preferentially inducing the biosynthesis of interferon” (3M Innovative Properties Company, priority 2005, dated 2014).

Assays:
[1] = test system: tumor necrosis factor (α) (TNF-α); assay: Cytokine induction in human cells: TNF-α secreted by PBMC into culture media (ORIGEN M-Series immunoassay); type: cell-based; design: key to Maximal Response (pg/mL) TNF / Maximal Response TNF: If any negative values result from background subtraction, the reading is reported as “*”, and is noted as not reliably detectable; settings: for Maximal Response TNF / Maximal Response (pg/mL) TNF: median; for Maximal Response (pg/mL) TNF: maximal response in dose response curve; for minimal effective concentration: lowest tested concentration inducing TNF-α over usually 40 pg/mL, median where more than one experiment, read-out: Minimum Effective Concentration (μM) TNF
Source text: (§1) Cytokine Induction in Human Cells
(§2) An in vitro human blood cell system is used to assess cytokine induction. Activity is based on the measurement of interferon (α) and tumor necrosis factor (α) (IFN-α and TNF-α, respectively) secreted into culture media as described by Testerman et. al. in “Cytokine Induction by the Immunomodulators Imiquimod and S-27609”, Journal of Leukocyte Biology, 58, 365-372 (September, 1995).
(§3) Blood Cell Preparation for Culture
(§4) Whole blood from healthy human donors is collected by venipuncture into vacutainer tubes or syringes containing EDTA. Peripheral blood mononuclear cells (PBMC) are separated from whole blood by density gradient centrifugation using HISTOPAQUE-1077 (Sigma, St. Louis, Mo.) or Ficoll-Paque Plus (Amersham Biosciences Piscataway, N.J.). Blood is diluted 1:1 with Dulbecco's Phosphate Buffered Saline (DPBS) or Hank's Balanced Salts Solution (HBSS). Alternately, whole blood is placed in Accuspin (Sigma) or LeucoSep (Oreiner Bio-One, Inc., Longwood, Fla.) centrifuge frit tubes containing density gradient medium. The PBMC layer is collected and washed twice with DPBS or HBSS and re-suspended at 4×10^6 cells/mL in RPMI complete. The PBMC suspension is added to 96 well flat bottom sterile tissue culture plates containing an equal volume of RPMI complete media containing test compound.
(§5) The compounds are solubilized in dimethyl sulfoxide (DMSO). The DMSO concentration should not exceed a final concentration of 1% for addition to the culture wells. The compounds are generally tested at concentrations ranging from 30-0.014 μM. Controls include cell samples with media only, cell samples with DMSO only (no compound), and cell samples with reference compound.
(§6) The solution of test compound is added at 60 μM to the first well containing RPMI complete and serial 3 fold dilutions are made in the wells. The PBMC suspension is then added to the wells in an equal volume, bringing the test compound concentrations to the desired range (usually 30-0.014 μM). The final concentration of PBMC suspension is 2×10^6 cells/mL. The plates are covered with sterile plastic lids, mixed gently and then incubated for 18 to 24 hours at 37° C. in a 5% carbon dioxide atmosphere.
(§7) Following incubation the plates are centrifuged for 10 minutes at 1000 rpm (approximately 200×g) at 4° C. The cell-free culture supernatant is removed and transferred to sterile polypropylene tubes. Samples are maintained at −30 to −70° C. until analysis. The samples are analyzed for IFN-α by ELISA and for TNF-α by IGEN/BioVeris Assay.
(§8) Interferon (α) and Tumor Necrosis Factor (α) Analysis
The TNF-α concentration is determined by ORIGEN M-Series Immunoassay and read on an IGEN M-8 analyzer from BioVeris Corporation, formerly known as IGEN International, Gaithersburg, Md. The immunoassay uses a human TNF-α capture and detection antibody pair (Catalog Numbers AHC3419 and AHC3712) from Biosource International, Camarillo, Calif. Results are expressed in pg/mL.
(§9) In total, the data output of the assay consists of concentration values of TNF-α and IFN-α (y-axis) as a function of compound concentration (x-axis).
Analysis of the data has two steps. First, the greater of the mean DMSO (DMSO control wells) or the experimental background (usually 20 pg/mL for IFN-α and 40 pg/mL for TNF-α) is subtracted from each reading. If any negative values result from background subtraction, the reading is reported as “*”, and is noted as not reliably detectable. In subsequent calculations and statistics, “*”, is treated as a zero. Second, all background subtracted values are multiplied by a single adjustment ratio to decrease experiment to experiment variability. The adjustment ratio is the area of the reference compound in the new experiment divided by the expected area of the reference compound based on the past 61 experiments (unadjusted readings). […]

[2] = test system: interferon (α) (IFN-α); assay: Cytokine induction in human cells: IFN-α secreted by PBMC into culture media (ELISA); type: cell-based; settings: for Maximal Response (pg/mL) IFN: maximal response in dose response curve, median; for minimal effective concentration: lowest tested concentration inducing IFN-α over usually 20 pg/mL, median where more than one experiment, read-out: Minimum Effective Concentration (μM) IFN
Source text: as §1, §2, §3, §4, §5, §6, §7, §8
IFN-α concentration is determined with a human multi-subtype calorimetric sandwich ELISA (Catalog Number 41105) from PBL Biomedical Laboratories, Piscataway, N.J. Results are expressed in pg/mL.
as §9
Analysis of the data has two steps. First, the greater of the mean DMSO (DMSO control wells) or the experimental background (usually 20 pg/mL for IFN-α and 40 pg/mL for TNF-α) is subtracted from each reading. If any negative values result from background subtraction, the reading is reported as “*”, and is noted as not reliably detectable. In subsequent calculations and statistics, “*”, is treated as a zero. Second, all background subtracted values are multiplied by a single adjustment ratio to decrease experiment to experiment variability. The adjustment ratio is the area of the reference compound in the new experiment divided by the expected area of the reference compound based on the past 61 experiments (unadjusted readings). […] The reference compound used is 2-[4-amino-2-ethoxymethyl-6,7,8,9-tetrahydro-α,α-dimethyl-1H-imidazo[4,5-c]quinolin-1-yl]ethanol hydrate (U.S. Pat. No. 5,352,784; Example 91) and the expected area is the sum of the median dose values from the past 61 experiments. […]

[3] = Table 11, human PBMC, median where tested in more than one experiment
[4] = Table 11, human PBMC, * = TNF below experimental background of 40 pg/mL
[5] = Table 7, background-subtracted, reference-adjusted
[6] = Table 8, background-subtracted, reference-adjusted
[7] = Table 12, human PBMC, * = below the experimental background of 40 pg/mL
[8] = Table 12, human PBMC, median where tested in more than one experiment
[9] = Table 9, * = below experimental background level of 40 pg/mL
[10] = Table 10, * = below experimental background level
[11] = Table 9, background-subtracted, reference-adjusted

## Cc1nc2c(N)nc3ccccc3c2n1CCCNS(C)(=O)=O [Aanalog 58]
[1]; [3]
  Minimum Effective Concentration TNF: 30 µM
[1]; [4]
  Maximal Response TNF: *
[2]; [3]
  Maximal Response IFN: 2778 pg/mL
  Minimum Effective Concentration IFN: 1.11 µM

## Cc1nc2c(N)nc3ccccc3c2n1CC(C)(C)NS(C)(=O)=O [Analog 1, N-[2-(4-Amino-2-methyl-1H-imidazo[4,5-c]quinolin-1-yl)-1,1-dimethylethyl]methanesulfonamide]
[1]; [5]
  Maximal Response (pg/mL) TNF: 1518 pg/mL
[2]; [5]
  Maximal Response (pg/mL) IFN: 1846 pg/mL

## CCc1nc2c(N)nc3ccccc3c2n1CC(C)(C)NS(C)(=O)=O [Analog 2, N-[2-(4-Amino-2-ethyl-1H-imidazo[4,5-c]quinolin-1-yl)-1,1-dimethylethyl]methanesulfonamide]
[1]; [5]
  Maximal Response (pg/mL) TNF: 3670 pg/mL
[1]; [4]
  Maximal Response TNF: 9675 pg/mL
[2]; [5]
  Maximal Response (pg/mL) IFN: 831 pg/mL
[2]; [3]
  Maximal Response IFN: 1096 pg/mL

## CCCc1nc2c(N)nc3ccccc3c2n1CC(C)(C)NS(C)(=O)=O [Analog 3, N-[2-(4-Amino-2-propyl-1H-imidazo[4,5-c]quinolin-1-yl)-1,1-dimethylethyl]methanesulfonamide]
[1]; [5]
  Maximal Response (pg/mL) TNF: 7245 pg/mL
[1]; [4]
  Maximal Response TNF: 9780 pg/mL
[2]; [5]
  Maximal Response (pg/mL) IFN: 832 pg/mL

## CCOCc1nc2c(N)nc3ccccc3c2n1CC(C)(C)NS(C)(=O)=O [Analog 4, N-[2-(4-Amino-2-ethoxymethyl-1H-imidazo[4,5-c]quinolin-1-yl)-1,1-dimethylethyl]methanesulfonamide]
[1]; [5]
  Maximal Response (pg/mL) TNF: 10125 pg/mL
[1]; [4]
  Maximal Response TNF: 10665 pg/mL
[2]; [5]
  Maximal Response (pg/mL) IFN: 889 pg/mL
[2]; [3]
  Maximal Response IFN: 1138 pg/mL

## COCCc1nc2c(N)nc3ccccc3c2n1CC(C)(C)NS(C)(=O)=O [Analog 5, N-{2-[4-Amino-2-(2-methoxyethyl)-1H-imidazo[4,5-c]quinolin-1-yl]-1,1-dimethylethyl}methanesulfonamide]
[1]; [5]
  Maximal Response (pg/mL) TNF: 12518 pg/mL
[1]; [4]
  Maximal Response TNF: 13908 pg/mL
[2]; [5]
  Maximal Response (pg/mL) IFN: 825 pg/mL
[2]; [3]
  Maximal Response IFN: 1308 pg/mL

## CCOCc1nc2c(N)nc3cccnc3c2n1CC(C)(C)O [Analog 6, 1-(4-amino-2-ethoxymethyl-1H-imidazo[4,5-c][1,5]naphthyridin-1-yl)-2-methylpropan-2-ol]
[1]; [6]
  Maximal Response (pg/mL) TNF: 4921 pg/mL
[1]; [7]
  Maximal Response TNF: 7275 pg/mL
[2]; [6]
  Maximal Response (pg/mL) IFN: 658 pg/mL
[2]; [8]
  Maximal Response IFN: 1674 pg/mL

## COCCc1nc2c(N)nc3cccnc3c2n1CC(C)(C)O [Analog 7, 1-[4-amino-2-(2-methoxyethyl)-1H-imidazo[4,5-c][1,5]naphthyridin-1-yl]-2-methylpropan-2-ol]
[1]; [6]
  Maximal Response (pg/mL) TNF: 7762 pg/mL
[1]; [7]
  Maximal Response TNF: 7503 pg/mL
[2]; [6]
  Maximal Response (pg/mL) IFN: 4143 pg/mL
[2]; [8]
  Maximal Response IFN: 3142 pg/mL

## CCc1nc2c(N)nc3cc(-c4cccnc4)ccc3c2n1CC(C)(C)O [Analog 8, 1-(4-amino-2-ethyl-7-pyridin-3-yl-1H-imidazo[4,5-c]quinolin-1-yl)-2-methylpropan-2-ol]
[1]; [9]
  Maximal Response (pg/mL) TNF: 3234 pg/mL
[1]; [10]
  Maximal Response (pg/mL) TNF: 3571 pg/mL
[2]; [11]
  Maximal Response (pg/mL) IFN: 1118 pg/mL
[2]; [10]
  Maximal Response (pg/mL) IFN: 1652 pg/mL

## CCCc1nc2c(N)nc3cc(-c4cccnc4)ccc3c2n1CC(C)(C)O [Analog 9, 1-(4-amino-2-propyl-7-pyridin-3-yl-1H-imidazo[4,5-c]quinolin-1-yl)-2-methylpropan-2-ol]
[1]; [9]
  Maximal Response (pg/mL) TNF: 3951 pg/mL
[1]; [10]
  Maximal Response (pg/mL) TNF: 3951 pg/mL
[2]; [11]
  Maximal Response (pg/mL) IFN: 597 pg/mL
[2]; [10]
  Maximal Response (pg/mL) IFN: 597 pg/mL

## CCOCc1nc2c(N)nc3cc(-c4cccnc4)ccc3c2n1CC(C)(C)O [Analog 10, 1-(4-amino-2-ethoxymethyl-7-pyridin-3-yl-1H-imidazo[4,5-c]quinolin-1-yl)-2-methylpropan-2-ol]
[1]; [10]
  Maximal Response (pg/mL) TNF: 7867 pg/mL
[2]; [11]
  Maximal Response (pg/mL) IFN: 840 pg/mL
[2]; [10]
  Maximal Response (pg/mL) IFN: 840 pg/mL

## COCc1nc2c(N)nc3cc(-c4cccnc4)ccc3c2n1CC(C)(C)O [Analog 11]
[1]; Table 10, human PBMC
  minimal effective concentration: 1.11 µM
[1]; [10]
  Maximal Response (pg/mL) TNF: 3445 pg/mL
[2]; Table 10, human PBMC
  minimal effective concentration: 0.37 µM
[2]; [10]
  Maximal Response (pg/mL) IFN: 829 pg/mL

## COCCc1nc2c(N)nc3cc(-c4cccnc4)ccc3c2n1CC(C)(C)O [Analog 12]
[1]; Table 10, human PBMC
  minimal effective concentration: 0.014 µM
[1]; [10]
  Maximal Response (pg/mL) TNF: 8386 pg/mL
[2]; Table 10, human PBMC
  minimal effective concentration: 0.014 µM
[2]; [10]
  Maximal Response (pg/mL) IFN: 1065 pg/mL

## Nc1nc2ccccc2c2c1nc(CCO)n2CCCNC(=O)c1cc2ccccc2cn1 [Example 2, N-{3-[4-Amino-2-(2-hydroxyethyl)-1H-imidazo[4,5-c]quinolin-1-yl]propyl}isoquinoline-3-carboxamide]
[2]; [3]
  Maximal Response IFN: 507 pg/mL

## CC(C)(N)Cn1c(CO)nc2c(N)nc3ccccc3c21 [Example 4, 1-(2-Amino-2-methylpropyl)-2-hydroxymethyl-1H-imidazo[4,5-c]quinolin-4-amine]
[2]; [3]
  Maximal Response IFN: 1893 pg/mL

## CC(C)(O)Cn1c(CO)nc2c(N)nc3cc(-c4cncc(CO)c4)ccc3c21 [Example 189]
[2]; [10]
  Maximal Response (pg/mL) IFN: 4357 pg/mL

## CC(C)C(=O)N1CCC(Cn2c(CO)nc3c(N)nc4cc(-c5cccnc5)ccc4c32)CC1 [Example 191]
[2]; [10]
  Maximal Response (pg/mL) IFN: 969 pg/mL

## Nc1nc2cc(-c3cncc(CO)c3)ccc2c2c1nc(CO)n2CC1CCCCC1 [Example 205]
[2]; [10]
  Maximal Response (pg/mL) IFN: 1087 pg/mL

## Nc1nc2cc(-c3cccc(C(=O)N4CCOCC4)c3)ccc2c2c1nc(CO)n2CC1CCCCC1 [Example 206]
[2]; [10]
  Maximal Response (pg/mL) IFN: 1266 pg/mL

## CC(C)NC(=O)NCCn1c(CO)nc2c(N)nc3ccccc3c21 [Example 365, N-{2-[4-amino-2-(hydroxymethyl)-1H-imidazo[4,5-c]quinolin-1-yl]ethyl}-N′-isopropylurea]
[2]; [3]
  Maximal Response IFN: 1488 pg/mL
